In a melting point compilation (Tetko et al.; mined from patent text by program, amines drawn as free bases though some values may be those of a salt) one finds melting point data, which are given here for 86 compounds.

A value given as a limit tells only on which side of the number the result lay.

Take `O=C(O)C1=Cc2cc(Cl)c(Oc3ccc(Cl)cc3)cc2OC1C(F)(F)F` (stereo unspecified): the melting point (in general, the temperature of the solid-liquid transition) lay in the range of 205 to 206 °C. For the compound `CC(=O)n1ncc2c(OCc3ccccc3)cc(C)cc21`, the melting point was 91 to 93 °C.

Compound `COc1ccc(-c2c(CO)c(C)nc3cc(OC)c(OC)cc23)cc1OC` came in with a melting point of 200 to 201 °C.

Regarding `COC(=O)c1c(Cc2ccc(S(=O)(=O)N3CCN(C)CC3)cc2)c(=O)c2ccccc2n1-c1ccccc1`, the melting point was 210 to 212 °C. In the case of `CC1(C)CC(=O)C2=C(C1)NC1=C(C(=O)CC(C)(C)C1)C2c1cccc(Oc2cnccn2)c1`, the melting point was 204 to 207 °C.

In turn, `CC(C)c1nc(CCCOCc2ccccc2)n(CCO)c1Sc1cc(Cl)cc(Cl)c1` displayed a melting point of 104 to 106 °C. In turn, `Nc1cccc2c(-c3ccccc3)c([N+](=O)[O-])oc12` yielded a melting point of 164 to 166 °C.

Turning to `CSC1C(O)C(CO)OC1n1ccc(NC(=O)c2ccccc2)nc1=O` (stereo unspecified), the melting point fell in the range of 193 to 194 °C. Compound `CC(C)(C)OC(=O)N1CCN(c2c(F)cc(NC(=O)OCc3ccccc3)cc2F)CC1` yielded a melting point of 171 to 172 °C. Compound `Cc1c(C)c2ccc(OCC(O)CN3CCC(NC(=O)c4ccccc4)CC3)cc2oc1=O` (stereo unspecified) returned a melting point of 178 to 180 °C.

`CCOc1nc(N)n2nc(-c3ccco3)nc2n1` yielded a melting point of 211 to 213 °C. With `O=C(C=Cc1cccc(NC(=O)C=Cc2ccccc2)c1)NO` the figure was 178 °C; with `CN(C)Cc1ccc2cc(C(=O)Nc3ccc(-c4ccc(Cl)cc4)cc3)ccc2c1`, 240 to 242 °C; with `COC(=O)c1ccc(CNC(=O)c2[nH]c(-c3cccs3)cc2-c2ccc(F)cc2)nc1`, 174 to 176 °C. With `CCOc1cc(COc2nn(-c3ccccc3)cc2C=O)ccc1OCc1nc(-c2ccco2)oc1C` the figure was 149 to 150 °C. In the case of `O=c1[nH]c(=O)n([C@@H]2O[C@H](CO)[C@@H](O)[C@H]2O)cc1/C(I)=C\I`, the melting point lay within 107 to 109 °C.

`O=C(O)c1cnn2c(C(F)(F)F)cc(-c3cccc(C(F)(F)F)c3)nc12` had a melting point of 212 °C. With `CCOC(=O)COc1ccccc1C(O)(CC)c1cccc(Cl)c1` (stereo unspecified) the figure was 83 to 84 °C. The value for `CCOC(=O)CC(=O)CCCn1cncn1` was 114 to 116 °C. Consider `CCCC1=C(C(=O)OCC)C(c2cccc([N+](=O)[O-])c2)C(C(=O)OCC)=C(C)N1COCC` (stereo unspecified), for which the melting point came to 97 °C. For the compound `COCCOc1ccc(CC(C)C(=O)O)c(Oc2ncc(C(F)(F)F)cc2Cl)c1` (stereo unspecified), the melting point was in the range of 130 to 131 °C. As for `N#CCCn1cccc1C1=CC(=O)c2ncccc2C1=O`, the melting point was in the range of 166 to 167 °C.

`CCOC(=O)C(=O)Nc1cccc(OCCO)c1C(N)=O` yielded a melting point of 146 to 148 °C. The value for `CCCCOc1cc2c(cc1C=Cc1ccc(C(=O)O)cc1)C(C)(C)CCC2(C)C` was 194 to 196 °C.

With `CC12CCC3c4ccc(C(=O)O)cc4CCC3C1CCC2C(=O)C#Cc1ccccc1` (stereo unspecified), the melting point lay within 174 to 178 °C. With `C[C@H](C#Cc1cc(Cc2ccc(F)cc2)cs1)N(O)C(N)=O` the figure was 105 to 108 °C. For `CON=C(C)c1cccc(S(N)(=O)=O)c1`, the melting point was 165 to 166 °C.

For the compound `Cc1c(N=C2NCCO2)cccc1NS(C)(=O)=O`, the melting point was in the range of 124 to 140 °C.

For `CC1(C)CC(=NNC(=N)NN=C2CC(C)(C)NC(C)(C)C2)CC(C)(C)N1`, the melting point lay in the range of 163 to 167 °C. Regarding `CCOC(=O)C1=C(C)NC(C)=C(C(=O)OCC)C1c1c(SC)sc2ccccc12`, the melting point was in the range of 177 to 179 °C.

`CNCCCc1nc2ccccc2[nH]1`: the melting point was 134 to 136 °C. With `COc1ccc(Cl)c(Oc2c(Cl)ncnc2NS(=O)(=O)c2ccc(C(C)C)cn2)c1` the figure was 174 to 175 °C; with `O=C1C(=C2CCCN2Cc2ccccc2)c2ccccc2N1c1cccc(Cl)c1`, 72 to 75 °C; with `CCn1cc(C(=O)O)c(=O)c2cc(F)c(N3CCNC(c4c[nH]c5ccccc45)C3)cc21` (stereo unspecified), 230 °C. With `CS(=O)(=O)c1ccc(-c2oc3ccccc3c(=O)c2-c2cnccc2Cl)cc1` the figure was 232 to 233 °C; with `NC(=O)N(O)CC1=NOC(c2ccc(F)cc2)C1` (stereo unspecified), 151 to 152 °C. The value for `O=S(=O)(c1ccc(O)cc1)N(CC(F)(F)F)c1ccc(O)cc1` was 172 to 173 °C; that for `CSC(Oc1cc(Cl)c2ncc(Br)cc2c1)C(=O)NC(C)(C)C` (stereo unspecified) was 160 to 161 °C. `Oc1ccc2c(c1)OC(c1ccc(OCCN3CCCCC3)cc1)c1c-2ccc2cc(O)ccc12` (stereo unspecified) displayed a melting point of 158 to 161 °C. The value for `C1=C(c2c[nH]c3ccccc23)CCN(CC2COc3ccc4ncncc4c3O2)C1` (stereo unspecified) was 204 to 207 °C; that for `O=C1Nc2cccc(-c3cccs3)c2/C1=C/c1ccc[nH]1` was 213 to 214 °C. The value for `Cc1nc(N2CCN(CC3CC3)C2=O)sc1C(=O)NCc1ncco1` was 172 to 174 °C; that for `COc1ccc(COc2cccnc2NC(=N)Nc2ccc(Cl)cc2)cc1` was 165 to 166 °C; that for `CC(C)CCC1C(=O)N(CCl)S(=O)(=O)N1C` (stereo unspecified) was 59 to 60 °C. With `O=C(O)Cc1ccc2c(c1)C(=O)Cc1ccccc1S2` the figure was 166 to 167 °C. `Cc1ccc2nc(-c3cc(C(F)(F)F)nn3-c3ccc(S(C)(=O)=O)cc3)sc2c1` yielded a melting point of 202 to 204 °C. In turn, `COc1cc(/C=C2/C(=O)NC(=O)/C2=C/c2ccccc2)cc(OC)c1OC` came in with a melting point of 176 to 178 °C. `COc1ccc(-n2c(=O)oc3ccc(-c4ccc(F)cc4F)cc3c2=O)cc1OC` yielded a melting point of 198 to 199 °C. With `O=C(O)c1cn(C2CCN(c3c(F)cc4c(=O)c(C(=O)O)cn(C5CC5)c4c3F)C2)nn1` (stereo unspecified) the figure was 222 to 225 °C; with `O=C1O[C@@H](COc2cnsn2)CN1c1ccc(N2C[C@@H]3C[C@H]2CN3Cc2ccccc2)c(F)c1`, 97 to 98 °C; with `CC1C(=O)Oc2c(Oc3ccccc3F)cccc21` (stereo unspecified), 70 to 71.5 °C. With `COC(=O)c1cccnc1C(=O)c1ccc(-n2ccnc2)cc1` the figure was 171 to 174 °C; with `Cc1ccc(C(=O)c2[nH]c3ccc(Cl)cc3c2CC(=O)O)nc1`, 247 to 248 °C.

Compound `Cc1nnc(-c2ccc3c(=O)n(CC(C)C)c(CN)c(-c4ccccc4)c3c2)o1` displayed a melting point of 179 to 181 °C. In turn, `O=c1[nH]c(=O)n2c3c1cnn3C(c1cccc(C(F)(F)F)c1)=CC2` gave a melting point of 260 to 262 °C. For the compound `CC(Cn1ncnn1)n1nnc2cc3c(=O)n(C)nnc3cc2c1=O` (stereo unspecified), the melting point was in the range of 228 to 230 °C. `O=C(NCc1ccc(Cl)cc1)c1cn(N2CCOCC2)c2ccc(CN3CCOCC3)cc2c1=O` returned a melting point of 195 to 196 °C. `COc1cccc2c(Nc3ccccc3C)c(C(=O)C3CCCCC3)cnc12` registered a melting point of 115 to 117 °C.

Take `CN1Cc2cncn2C(c2ccc(Br)cc2)C1=O` (stereo unspecified): the melting point lay within 143 to 144 °C. Compound `CN1C(c2ccncc2)CC(=O)CC1c1ccncc1` (stereo unspecified) gave a melting point of 103 to 106 °C. Compound `COc1cc2c(cc1OC)C(=O)C(Cc1ccncc1)C2` (stereo unspecified) yielded a melting point of 192 to 193 °C. `Cc1cc2c(cc1C)C(=O)C(C#N)C2=O` gave a melting point of 209 to 210 °C. For the compound `OCc1cc2cc(-c3ccc(OC(F)(F)F)cc3)ccc2n1Cc1ccccc1`, the melting point fell in the range of 108 to 109 °C. `CCCN(c1nc(-c2ccc(OC)cc2Cl)c(C)s1)c1cc(-c2ccccc2C)ccc1OC` had a melting point of 55 °C.

For the compound `Nc1nc(=O)n(C2C=CC(CO)O2)cc1F` (stereo unspecified), the melting point came to 206 °C. With `N#Cc1cc(-c2nc3cncnc3s2)ccc1Sc1ccccc1F` the figure was 178 to 180 °C. With `CNc1nc(-c2cccc(NC(=O)c3cccnc3N3CCCC3)c2)c2cc(OC)c(OC)cc2n1` the figure was 135 to 137 °C; with `COc1ccc2c(c1)c(C)c(CCCO)n2Cc1ccc(Cl)cc1`, 118 °C; with `CC(=O)OC1CCC2(C)C(=CCC3C2CCC2(C)C(n4nccn4)=C(C=O)CC32)C1` (stereo unspecified), 145 to 148 °C. The value for `OC1CCN(c2ncc(-c3ccc(Cl)cc3Cl)cn2)CC1` was 122 to 124 °C. Consider `O=Cc1cc(Cl)ccc1OC/C=C/CCl`, for which the melting point was in the range of 62 to 63 °C. With `COc1ccccc1CN[C@H]1CCCN[C@H]1c1ccsc1` (relative stereo) the figure was greater than 239 °C. The value for `Cc1ccc(Cn2nc(Br)c([N+](=O)[O-])c2NCc2ccccc2)cc1` was 108 °C. As for `CC(C)(C)OC(=O)N1CC=C(C2=C(C#N)C(c3cccc4nonc34)c3c[nH]nc3N2)CC1` (stereo unspecified), the melting point amounted to 222 °C.

Take `CC1(COc2c(-c3ccc(S(C)(=O)=O)cc3)cnn(CC(F)(F)F)c2=O)CC1`: the melting point fell in the range of 98 to 99 °C. With `CCOC(=O)OCn1c(SCc2nccc3ccsc23)nc2ccccc21` the figure was 90 to 92 °C; with `CCCCCCCc1ccccc1C=CC(=O)c1ccc(OCC=C(C)C)cc1O`, 65 to 67 °C.

Take `O=[N+]([O-])c1cccc2c1COC2`: the melting point was 104 to 108 °C. In turn, `CC(=O)OCCn1c(=O)sc2ccc(-c3nc4ccccn4c3C)cc21` had a melting point of 113 to 115 °C.

With `COc1cc(OC)c(-c2cccs2)cc1C=CC(=O)c1ccc(S(=O)(=O)Nc2nnn[nH]2)cc1`, the melting point lay in the range of 185 to 186 °C. `COC(c1ccc(Cl)cc1)(c1ccc(NC(=O)c2cccc(I)c2C(=O)NC(C)C)c(C)c1)C(F)(F)F` (stereo unspecified) registered a melting point of 212 to 214 °C. The value for `O=C1c2cccc3c2N(CC3)c2ccccc2N1CC#CCN1CCCC1` was 80 to 81 °C; that for `N#CC1=CCN(c2ncccc2F)CC1` was 76 to 77 °C; that for `CCOc1cnc(N[N+](=O)[O-])[nH]c1=O` was 189 to 192 °C. For `COc1cc(C)c2c(Oc3cccc(C(F)(F)F)c3)c(OC)cc(NC(C)CCC[N+](=O)[O-])c2n1` (stereo unspecified), the melting point fell in the range of 84.8 to 85.1 °C. Consider `CCOC(=O)c1[nH]c2cc(Cl)cc(Cl)c2c1NCS(=O)(=O)c1ccccc1`, for which the melting point is 244 to 245 °C.
